Entries after “also recorded” stand apart in the source; their conditions may differ.
What was measured:
[1] = test system: DMS-79; assay: Dose response on viability of small cell lung cancer line, resazurin assay; assay type: cell-based; conditions: Homo sapiens; DMS-79, 72 h treatment
Procedure: (§1) IC50 of JWZ-7-7, BI-3812, JQ1, and combinations were calculated based on a dose response curve on three small cell lung cancer lines (FIG. 5). The dose response curve on viability was performed in technical replicates and biological triplicate after treating cells for 72 hours across a broad range of concentrations via serial dilutions. Viable cells were measured after treatment via a resazurin assay. The signal for viable assays was normalized to the DMSO treated negative control. A four-parameter non-linear fit was performed to fit a curve to calculate the IC50 for each of the cell lines. The table below describes the calculated IC50 across JWZ-7-7, JQ1, BI-3812 and combination of JQ1 and BI-3812 after 72 h treatment in technical replicates and biological triplicates.

[2] = test system: NCI-H1105; assay: as above; assay type: cell-based; conditions: NCI-H1105, 72 h treatment; read-out: IC50
Procedure: as §1

[3] = test system: NCI-H2196; assay: as above; assay type: cell-based; conditions: Homo sapiens; NCI-H2196, 72 h treatment
Procedure: as §1

[4] = test system: MYC, FOXO3, p21, BCL6, BRD4 protein levels in KARPAS422 and SUDHL5; assay: Western blots of target proteins in DLBCL cells; assay type: cell-based, human; conditions: titrated against constant 10 nM TCIP1, 8 hours
Procedure: Cells were plated at 1 M/mL and treated with drug at indicated timepoints and doses. 2 M Cells were harvested on ice in RIPA buffer (50 mM Tris-HCl pH 8, 150 mM NaCl, 1% NP-40, 0.1% DOC, 1% SDS, protease inhibitor cocktail (homemade), 1 mM DTT) and 1:200 benzonase (Sigma #E1014) was added and incubated for 20 minutes. After 10 minute centrifugation at 14,000 g and 4° C., the supernatant was collected and protein concentration was measured by Bradford.
Because a high percentage of the TCIP1-treated cells contain fragmented DNA by TUNEL assay at 24 hours (FIG. 31, Panel E), many of the “reduced genes” could reflect DNA fragmentation as part of the apoptotic process and digestion to mononucleosomes. Among the group of genes whose expression was most reduced were MYC and its targets (FIGS. 33B, 36C). The top 100 most TCIP1-reduced genes were examined using ChIP-seq data of human transcription factors in blood cancer cell lines, and found the promoters of TCIP1-inhibited genes highly enriched for MYC binding in multiple datasets (FIG. 33, Panel C). This is significant since many DLBCLs are considered to be MYC-dependent.
Signaling via NF-kB is known to be repressed by BCL6.

[5] = test system: DLBCL cell lines; assay: Chemical rescue: competitive titration of JQ1 or Bl3812 against the TCIP; assay type: cell-based; conditions: titrated against constant JWZ-7-7 / TCIP1
[6] = biological target: T1, bromodomain 1 of BRD4 and BTB domain of BCL6 (Homo sapiens, UniProt O60885+P41182, C67R/C84N/C8Q); assay: TR-FRET assay of ternary complex formation; assay type: binding; conditions: 1 hr at room temperature, 520 nm/490 nm ratio
T1 construct: contains amino acids 5-129 with three mutations, C8Q, C67R, C84N
Procedure: Reaction was incubated for 1 hr at room temperature, and subsequently the fluorescence at 520 nm and 490 nm was measured. The 520 nm/490 nm ratio is plotted respective to DMSO control. The two lower curves are performed by addition of Neg1 and Neg2 instead of JWZ-7-7. […] The structure of JWZ-7-7 is provided in FIG. 2 and the structures of Neg1 and Neg2 are provided below:
Each reaction contained 100 nM BRD4^BD1, 100 nM BCL6BTB-Avi-Biot, 20 nM Streptavidin-FITC (Thermo #SA1001), and 1:400 anti-6×His terbium antibody (PerkinElmer #61H12TLF) in 10 μL of buffer containing 20 mM HEPES, 150 mM NaCl, 0.1% BSA, 0.1% NP-40, and 1 mM TCEP in a 384-well plate. Protein was incubated with drug digitally dispensed (Tecan D300e) for 1 hour in the dark at room temperature before excitation at 337 nm and measurement of emission at 520 nm (FITC) and 490 nm (terbium) with a PHERAstar FS plate reader (BMG Labtech). The ratio of signal at 520 nm to 490 nm was calculated and normalized to DMSO-treated conditions, and plotted.

| Compound | Ternary complex formation (TR-FRET) [6] | also measured |
| --- | --- | --- |
| CNC(=O)COc1cc2cc(Nc3nc(N4CCC(C(=O)N(C)C)CC4)ncc3Cl)cc(OC)c2n(C)c1=O [BI-3812] | – | IC50 [1]: 6.1 µM; IC50 [2]: 4.3 µM; IC50 [3]: 3.5 µM |
| CNC(=O)COc1cc2cc(Nc3nc(N4CCC(C(=O)N(C)C)CC4)ncc3Cl)cc(OC)c2n(C)c1=O [Bl3812] | – | Reversal of TCIP1-induced protein changes [4]: reversed p21 upregulation, FOXO3 upregulation, and MYC downregulation; Rescue of TCIP-induced cell death [5]: rescue cell death; also recorded: prevented death by TCIP1 |
| CNC(=O)COc1cc2cc(Nc3nc(N4CCC(C(=O)NCCCCCCNC(=O)C[C@@H]5N=C(c6ccc(Cl)cc6)c6c(sc(C)c6C)-n6c(C)nnc65)CC4)ncc3Cl)cc(OC)c2n(C)c1=O [JWZ-7-6, (S)-1-(5-chloro-4-((8-methoxy-1-methyl-3-(2-(methylamino)-2-oxoethoxy)-2-oxo-1,2-dihydroquinolin-6-yl)amino)pyrimidin-2-yl)-N-(6-(2-(4-(4-chlorophenyl)-2,3,9-trimethyl-6H-thieno[3,2-f][1,2,4]triazolo[4,3-a][1,4]diazepin-6-yl)acetamido)hexyl)piperidine-4-carboxamide] | showed ternary complex formation | – |
| CNC(=O)COc1cc2cc(Nc3nc(N4CCC(C(=O)NCCN5CCN(CCNC(=O)C[C@@H]6N=C(c7ccc(Cl)cc7)c7c(sc(C)c7C)-n7c(C)nnc76)CC5)CC4)ncc3Cl)cc(OC)c2n(C)c1=O [JWZ-7-13, (S)-1-(5-chloro-4-((8-methoxy-1-methyl-3-(2-(methylamino)-2-oxoethoxy)-2-oxo-1,2-dihydroquinolin-6-yl)amino)pyrimidin-2-yl)-N-(2-(4-(2-(2-(4-(4-chlorophenyl)-2,3,9-trimethyl-6H-thieno[3,2-f][1,2,4]triazolo[4,3-a][1,4]diazepin-6-yl)acetamido)ethyl)piperazin-1-yl)ethyl)piperidine-4-carboxamide] | showed ternary complex formation | – |
| CNC(=O)COc1cc2cc(Nc3nc(N4CCC(C(=O)NCCCN5CCN(CCCNC(=O)C[C@@H]6N=C(c7ccc(Cl)cc7)c7c(sc(C)c7C)-n7c(C)nnc76)CC5)CC4)ncc3Cl)cc(OC)c2n(C)c1=O [JWZ-7-14, (S)-1-(5-chloro-4-((8-methoxy-1-methyl-3-(2-(methylamino)-2-oxoethoxy)-2-oxo-1,2-dihydroquinolin-6-yl)amino)pyrimidin-2-yl)-N-(3-(4-(3-(2-(4-(4-chlorophenyl)-2,3,9-trimethyl-6H-thieno[3,2-f][1,2,4]triazolo[4,3-a][1,4]diazepin-6-yl)acetamido)propyl)piperazin-1-yl)propyl)piperidine-4-carboxamide] | showed ternary complex formation | – |
| CNC(=O)COc1cc2cc(Nc3nc(N4CCC(C(=O)NCCCCCCCCCNC(=O)C[C@@H]5N=C(c6ccc(Cl)cc6)c6c(sc(C)c6C)-n6c(C)nnc65)CC4)ncc3Cl)cc(OC)c2n(C)c1=O [JWZ-7-15, (S)-1-(5-chloro-4-((8-methoxy-1-methyl-3-(2-(methylamino)-2-oxoethoxy)-2-oxo-1,2-dihydroquinolin-6-yl)amino)pyrimidin-2-yl)-N-(9-(2-(4-(4-chlorophenyl)-2,3,9-trimethyl-6H-thieno[3,2-f][1,2,4]triazolo[4,3-a][1,4]diazepin-6-yl)acetamido)nonyl)piperidine-4-carboxamide] | showed ternary complex formation | – |
| CNC(=O)COc1cc2cc(Nc3nc(N4CCC(C(=O)NCCCCCCCCCCNC(=O)C[C@@H]5N=C(c6ccc(Cl)cc6)c6c(sc(C)c6C)-n6c(C)nnc65)CC4)ncc3Cl)cc(OC)c2n(C)c1=O [JWZ-7-20, (S)-1-(5-chloro-4-((8-methoxy-1-methyl-3-(2-(methylamino)-2-oxoethoxy)-2-oxo-1,2-dihydroquinolin-6-yl)amino)pyrimidin-2-yl)-N-(10-(2-(4-(4-chlorophenyl)-2,3,9-trimethyl-6H-thieno[3,2-f][1,2,4]triazolo[4,3-a][1,4]diazepin-6-yl)acetamido)decyl)piperidine-4-carboxamide] | showed ternary complex formation | – |
| CNC(=O)COc1cc2cc(Nc3nc(N4CCN(CCCCCCCCCCCNC(=O)C[C@@H]5N=C(c6ccc(Cl)cc6)c6c(sc(C)c6C)-n6c(C)nnc65)CC4)ncc3Cl)cc(OC)c2n(C)c1=O [JWZ-7-22, (S)-2-((6-((5-chloro-2-(4-(11-(2-(4-(4-chlorophenyl)-2,3,9-trimethyl-6H-thieno[3,2-f][1,2,4]triazolo[4,3-a][1,4]diazepin-6-yl)acetamido)undecyl)piperazin-1-yl)pyrimidin-4-yl)amino)-8-methoxy-1-methyl-2-oxo-1,2-dihydroquinolin-3-yl)oxy)-N-methylacetamide] | showed ternary complex formation | – |
| CNC(=O)COc1cc2cc(Nc3nc(N4CCN(CCCCCCCCNC(=O)C[C@@H]5N=C(c6ccc(Cl)cc6)c6c(sc(C)c6C)-n6c(C)nnc65)CC4)ncc3Cl)cc(OC)c2n(C)c1=O [JWZ-7-23, (S)-2-((6-((5-chloro-2-(4-(8-(2-(4-(4-chlorophenyl)-2,3,9-trimethyl-6H-thieno[3,2-f][1,2,4]triazolo[4,3-a][1,4]diazepin-6-yl)acetamido)octyl)piperazin-1-yl)pyrimidin-4-yl)amino)-8-methoxy-1-methyl-2-oxo-1,2-dihydroquinolin-3-yl)oxy)-N-methylacetamide] | showed ternary complex formation | – |
| CNC(=O)COc1cc2cc(Nc3nc(N4CCC(C(=O)NCCCOCCCNC(=O)C[C@@H]5N=C(c6ccc(Cl)cc6)c6c(sc(C)c6C)-n6c(C)nnc65)CC4)ncc3Cl)cc(OC)c2n(C)c1=O [JWZ-7-97, (S)-1-(5-chloro-4-((8-methoxy-1-methyl-3-(2-(methylamino)-2-oxoethoxy)-2-oxo-1,2-dihydroquinolin-6-yl)amino)pyrimidin-2-yl)-N-(3-(3-(2-(4-(4-chlorophenyl)-2,3,9-trimethyl-6H-thieno[3,2-f][1,2,4]triazolo[4,3-a][1,4]diazepin-6-yl)acetamido)propoxy)propyl)piperidine-4-carboxamide] | showed ternary complex formation | – |
| CNC(=O)COc1cc2cc(Nc3nc(N4CCC(C(=O)N5CCC6(CC5)CN(CCNC(=O)C[C@@H]5N=C(c7ccc(Cl)cc7)c7c(sc(C)c7C)-n7c(C)nnc75)C6)CC4)ncc3Cl)cc(OC)c2n(C)c1=O [JWZ-7-98, (S)-2-((6-((5-chloro-2-(4-(2-(2-(2-(4-(4-chlorophenyl)-2,3,9-trimethyl-6H-thieno[3,2-f][1,2,4]triazolo[4,3-a][1,4]diazepin-6-yl)acetamido)ethyl)-2,7-diazaspiro[3.5]nonane-7-carbonyl)piperidin-1-yl)pyrimidin-4-yl)amino)-8-methoxy-1-methyl-2-oxo-1,2-dihydroquinolin-3-yl)oxy)-N-methylacetamide] | showed ternary complex formation | – |
| CNC(=O)COc1cc2cc(Nc3nc(N4CCC(C(=O)NCCCN(C)CCCNC(=O)C[C@@H]5N=C(c6ccc(Cl)cc6)c6c(sc(C)c6C)-n6c(C)nnc65)CC4)ncc3Cl)cc(OC)c2n(C)c1=O [JWZ-7-100, (S)-1-(5-chloro-4-((8-methoxy-1-methyl-3-(2-(methylamino)-2-oxoethoxy)-2-oxo-1,2-dihydroquinolin-6-yl)amino)pyrimidin-2-yl)-N-(3-((3-(2-(4-(4-chlorophenyl)-2,3,9-trimethyl-6H-thieno[3,2-f][1,2,4]triazolo[4,3-a][1,4]diazepin-6-yl)acetamido)propyl)(methyl)amino)propyl)piperidine-4-carboxamide] | showed ternary complex formation | – |
